Measured values reported in patent US20250339812A1, “ELECTROCHEMICAL DIRECT AIR CAPTURE OF CARBON DIOXIDE USING REVERSIBLE REDOX-ACTIVE MATERIAL” (Massachusetts Institute of Technology, priority 2022, published 2025).
Where two headings read alike, the source gives them in different places.

Legend:
[1] = pKa of the NR/NRH equilibrium; format: physicochemical
Description: After basification, a carbon dioxide rich gas stream was introduced to saturate and consequently acidify the solution.

[2] = Cyclic voltammetry redox durability of NR (100 cycles); conditions: after 100 cyclic voltammetry cycles
Description: The electrochemistry of the NR aqueous solution was examined by CV at various pH levels between 6 and 12 (FIG. 2A).

[3] = for peak intensity degradation: nitrogen control
Description: FIG. 5C is a UV-vis spectra for the oxygen sensitivity test.
FIG. 5D is a UV-vis spectra for the control experiment under nitrogen.
FIG. 5E is a UV-vis spectra for the stability test under carbon dioxide.
FIG. 5F is a UV-vis spectra for the stability test under air.
The factors contributing to the 455 nm peak degradation were examined, including decomposition, reoxidation, precipitation, and polymerization.
A third set of UV-vis absorption measurements […], this time on solutions contacted with carbon dioxide, was carried out. […] The final set of UV-vis absorption experiments in FIG. 5F was carried out using solutions bubbled with ambient air.

SMILES | pKa [1] | decay in the peak current [2] | decomposition, reoxidation or polymerization products by NMR studies ([3]; NRH2 solutions) | sensitivity to oxygen ([3]; UV-vis absorption spectroscopy, 50 mM NRH2 in 1 M NA and 0.5 M KCl in water) | intensities of the 455 nm peak ([3]; bubbled with ambient air, 30 min and 2 h contact) | degradation of peak intensity at 455 nm ([3]; contacted with carbon dioxide, after a day) | peak intensity at 455 nm ([3]; contacting pure oxygen, 2 h) | peak intensity degradation ([3]; after 24 h) | peak intensity degradation ([3]; after a week) | peak intensity of NRH2 (455 nm) lowered by ([3]; oxygen atmosphere, a day) | peak intensity of NRH2 (455 nm) lowered by ([3]; sealed under oxygen atmosphere after 24 h bubbling, a week)
Cc1cc2nc3ccc(N(C)C)cc3nc2cc1N.Cl [NR, neutral red] | 6.8 | no significant decay |  |  |  |  |  |  |  |  | 
Cc1cc2c(cc1N)Nc1cc(N(C)C)ccc1N2 [NRH2, leuco-neutral red] |  |  | No major decomposition, reoxidation, or polymerization products | insensitive to oxygen | the same | no significant degradation | maintained | 33% | 53% | 42% | 52%
